Measured values reported in ChEMBL document CHEMBL1201862, “PubChem BioAssay data set” (2004).
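Results reflect a 48-hour exposure of cells in 96-well plates to compound at five concentrations. GI50 marks 50% less growth.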 The source made the active and inactive calls. Cut-off read from the data, not from the text of the source: active = GI50 up to about 1.1 µM and inactive = higher.

Assays:
Assay in all cases: NCI-60 cell line screen, 48 h
DMS-273 = system: DMS-273
RXF 631 = system: RXF 631
LXFL 529 = system: LXFL 529
HOP-18 = system: HOP-18
XF498 = system: XF498
M19-MEL = system: M19-MEL

Cc1c(N)nc(C(CC(N)=O)NCC(N)C(N)=O)nc1C(=O)NC(C(=O)NC(C)C(O)C(C)C(=O)NC(C(=O)NCCc1nc(-c2nc(C(=O)NCCCNCCCCN)cs2)cs1)C(C)O)C(OC1OC(CO)C(O)C(O)C1OC1OC(CO)C(O)C(OC(N)=O)C1O)c1c[nH]cn1 (stereo not drawn)
GI50 (DMS-273): 0.957 µM (active)
GI50 (RXF 631): 0.0274 µM (active)
GI50 (LXFL 529): > 10 µM (inactive)
GI50 (HOP-18): > 10 µM (inactive)
GI50 (XF498): 0.0413 µM (active)
GI50 (M19-MEL): > 10 µM (inactive)

CC1(C)OC(=O)C(c2ccsc2)C(=O)O1
GI50 (DMS-273): > 100 µM (inactive)
GI50 (RXF 631): > 100 µM (inactive)
GI50 (LXFL 529): > 100 µM (inactive)
GI50 (HOP-18): > 100 µM (inactive)
GI50 (XF498): > 100 µM (inactive)
GI50 (M19-MEL): > 100 µM (inactive)

O=C1OC(=O)C2C3C=CC(C12)C1C2C=CC2C31 (stereo not drawn)
GI50 (DMS-273): > 100 µM (inactive)
GI50 (RXF 631): > 100 µM (inactive)
GI50 (LXFL 529): > 100 µM (inactive)
GI50 (HOP-18): > 100 µM (inactive)
GI50 (XF498): 42.4 µM (inactive)
GI50 (M19-MEL): > 100 µM (inactive)
